Reference: PMC3723632, “A Multi-targeted Drug Candidate with Dual Anti-HIV and Anti-HSV Activity” (PLoS Pathogens, 2013)
≈ marks a conversion by molar mass, not a printed value. Where two headings read alike, the source gives them in different places.

How the values were obtained:
HSV-2 (G) = test: HSV-2 replication in human ex vivo tonsillar (lymphoid) tissue, viral DNA; assay type: cell-based; conditions: for EC99 (viral load reduced by 2 orders of magnitude): tonsilar tissue, RT-PCR assay; for HSV-2 DNA copies: human lymphoid tissue ex vivo
Description: Figure 5 Suppression of HSV-2 in infected human ex vivo tonsillar tissue by adefovir and PMEO-DAPym. Blocks of human tonsillar tissue were inoculated ex vivo with HSV-2 (G) and treated or not with adefovir or PMEO-DAPym. We monitored HSV-2 (G) replication by measuring viral DNA in culture media at different times throughout the culture period. Presented are means ± SEM of cumulative HSV-2 (G) replication in tissues from two to six donors. For each donor, data represent pooled viral release from 27 tissue blocks.
Figure 7 Suppression of HSV-2 in single-infected and HIV-1 co-infected human ex vivo tonsillar tissue by adefovir and PMEO-DAPym. Panels A and B: Blocks of human tonsillar tissue from five different donors were co-inoculated ex vivo with HSV-2 (G) and HIV-1 (LAI) and treated or not with adefovir or PMEO-DAPym (1 µg/ml). For tissue from each donor, we monitored replication of both viruses by evaluating their accumulation in the culture media bathing 27 tissue blocks at different times throughout the culture. We evaluated HIV-1 replication by measuring p24gag and HSV-2 (G) replication by measuring HSV-2 viral DNA. Panel A: Presented are kinetics of HSV-2 (G) and HIV-1 (LAI) replication (insert). Each point represents the mean ± SEM of viral replication in tissues from five donors. Panel B: Presented are means ± SEM of cumulative HSV-2 (G) and HIV-1 (LAI) replication (insert).
Human tonsillar tissues were obtained from patients undergoing routine tonsillectomy at the Children's National Medical Center (Washington, DC) under IRB-approved protocol. Cervical tissues were obtained through the National Disease Research Interchange (NDRI, Philadelphia, PA). Tissues were dissected into blocks of about 2×2×2 mm and placed onto collagen sponge gels in culture medium at the air-liquid interface as described earlier. For tonsillar tissue for each experimental condition, 27 tissue blocks (9 blocks/well filled with 3 ml of medium) were inoculated with HSV-1 (strain F) or HSV-2 (strains G and MS). In coinfection experiments, tissue blocks were sequentially infected with HSV-2 (G) and HIV-1 (IIIB) (obtained from the Rush University Virology Quality Assurance Laboratory, Chicago, IL). Drugs (adefovir and PMEO-DAPym) were added to the culture medium 12 h prior to viral infection and replenished at each culture medium change.
(§1) For cervico-vaginal tissue, 16 blocks were infected by immersion in HSV-2G-containing medium and maintained on the gelfoam rafts. Adefovir was added at the time of infection and replenished at each culture medium change. HSV replication was evaluated from the release of viral DNA into the culture medium as measured with quantitative real-time PCR [18]. We evaluated HIV-1 replication from the release of p24 capsid antigen using a bead-based assay.

HIV-1 (LAI) = test: HIV-1 replication (p24) in coinfected human ex vivo lymphoid tissue; assay type: cell-based; conditions: lymphoid tissue coinfected with HIV-1 and HSV-2, 1 µg/ml
Procedure: Figure 7 Suppression of HSV-2 in single-infected and HIV-1 co-infected human ex vivo tonsillar tissue by adefovir and PMEO-DAPym. Panels A and B: Blocks of human tonsillar tissue from five different donors were co-inoculated ex vivo with HSV-2 (G) and HIV-1 (LAI) and treated or not with adefovir or PMEO-DAPym (1 µg/ml). For tissue from each donor, we monitored replication of both viruses by evaluating their accumulation in the culture media bathing 27 tissue blocks at different times throughout the culture. We evaluated HIV-1 replication by measuring p24gag and HSV-2 (G) replication by measuring HSV-2 viral DNA. Panel A: Presented are kinetics of HSV-2 (G) and HIV-1 (LAI) replication (insert). Each point represents the mean ± SEM of viral replication in tissues from five donors. Panel B: Presented are means ± SEM of cumulative HSV-2 (G) and HIV-1 (LAI) replication (insert). […]
as §1, with “Adefovir was added at the time of infection and replenished at each culture medium change.” left out

HSV-2 (G strain) = test: Pre-treatment of PHK cell cultures, HSV-2 infection (CPE)
Procedure: The HSV-induced cytopathic effect (CPE) was evaluated in HSV-infected HEL and PHK cultures as described [44], [48].

PBMC = test: Chemokine mRNA expression (RT-PCR) in PBMC; assay type: cell-based, human; conditions: 100 µg/ml, 4 h
Procedure: Figure 9 Expression of CC-chemokines, CCR5 and chemokine mRNA expression in PBMC cultures after drug treatment. Panel A: Production of CC-chemokines by PBMC and the effects of adefovir, tenofovir, and PMEO-DAPym on the expression of the CCR5 receptor. Freshly isolated PBMCs from four healthy donors were incubated for 24 h with medium only (NC) or with adefovir, tenofovir, or PMEO-DAPym. We collected the supernatants and measured the concentrations of MIP-1α (▪), MIP-1β (▴), and RANTES (•) using a Bioplex system (Bio-Rad, Hercules, CA). Shown are means ± SEM. The cells were also collected, and the expression of the CCR5 receptor (□) was measured with flow cytometry using the PE-labeled CCR5 (clone 2D7) mAb; it is shown as percentage of control (± SEM) from four independent representative experiments. Panel B: Chemokine mRNA expression upon PMEO-DAPym exposure to PBMC. RT-PCR analysis of MIP-1α, MIP-1β, RANTES, and GAPDH (control) expression in PBMC treated with 100-µg/ml PMEO-DAPym for 4 h. Similar results were obtained with PBMC from three different donors. Results from one representative donor are shown.
We isolated total RNA from approximately 10^6 PBMC using the RNeasy Mini Kit (QIAGEN, Hilden, Germany). To eliminate potential genomic DNA contamination, the samples were treated with DNase I (Roche). […]

HSV-1 (RV-174) = test: Virus yield reduction assay in HEL cells, HSV-1 clinical isolate; conditions: for EC90: Human alphaherpesvirus 1, HEL
Procedure: These assays were carried out in HEL cell monolayers at different times post infection. […] After 2 h at 37°C, the cells were washed and medium containing different concentrations of PMEO-DAPym (in duplicate) was added. Following 24, 48, and 72 h of incubation, we released the viruses by freeze-thawing and then titrated them using a plaque assay in HEL cells.

[1] = tested on: organotypic epithelial raft cultures of the PHKs; test: Histological examination of cell differentiation in raft cultures; conditions: highest tested concentration 50 µg/ml
Procedure: Primary human keratinocytes (PHKs) were seeded on top of collagen gels in 24-well microtiter plates and maintained submerged for 24–48 h. The collagen rafts were then raised and placed into stainless-steel grids at the interface between air and the liquid culture medium. The epithelial cells were allowed to stratify. Rafts were infected with 5,000 PFU of HSV-1KOS or HSV-2G at 10 days post lifting and treated with adefovir or PMEO-DAPym. Five days later, one series of rafts was fixed in 10% buffered formalin, embedded in paraffin, and stained with hematoxylin and eosin for histological evaluation.

[2] = Human alphaherpesvirus 2, read-out: 50% effective concentration, PHK, HSV-2 G, +2 h to 72 h (control, drug present whole incubation)
[3] = Human alphaherpesvirus 2, read-out: 50% effective concentration, PHK, HSV-2 G, pretreatment −2.5 h to 0 h
[4] = Human alphaherpesvirus 2, read-out: 50% effective concentration, PHK, HSV-2 G, pretreatment −6 h to 0 h
[5] = Human alphaherpesvirus 2, read-out: 50% effective concentration, PHK, HSV-2 G, pretreatment −18 h to 0 h

Nc1ncnc2c1ncn2CCOCP(=O)(O)O [Adefovir, 9-(2-phosphonylmethoxyethyl)adenine]
EC99 (viral load reduced by 2 orders of magnitude) (HSV-2 (G)): 5 µg/mL | HIV-1 inhibition (HIV-1 (LAI)): 2 orders of magnitude | EC50 (HSV-2 (G strain); [2]): 9.2 ± 6 µg/mL (≈ 33.7 µM) | EC50 (HSV-2 (G strain); [3]): 20 µg/mL (≈ 73.2 µM) | EC50 (HSV-2 (G strain); [4]): 11.9 µg/mL (≈ 43.6 µM) | EC50 (HSV-2 (G strain); [5]): 13.3 ± 2.6 µg/mL (≈ 48.7 µM)

Nc1cc(OCCOCP(=O)(O)O)nc(N)n1 [PMEO-DAPym, 6-phosphonylmethoxyethoxy-2,4-diaminopyrimidine]
inhibition at 0.3 µg/mL (HSV-2 (G); Human alphaherpesvirus 2, human lymphoid tissue ex vivo, 0.3 µg/mL, read-out: Inhibition of viral replication (% to control)): 52.8% | inhibition at 3 µg/mL (HSV-2 (G); Human alphaherpesvirus 2, human lymphoid tissue ex vivo, 3 µg/mL, read-out: Inhibition of viral replication (% to control)): > 99% | HSV-2 DNA copies (HSV-2 (G); 0.3 µg/mL): 5.76 e+7 copies | HSV-2 DNA copies (HSV-2 (G); 3 µg/mL): 8.08 e+5 copies | EC99 (viral load reduced by 2 orders of magnitude) (HSV-2 (G)): 2 µg/mL | HIV-1 inhibition (HIV-1 (LAI)): 2 orders of magnitude | increase in MIP-1β and MIP-1α mRNA expression (PBMC): > 9 fold | EC50 (HSV-2 (G strain); [2]): 3.5 ± 1.1 µg/mL (≈ 13.2 µM) | EC50 (HSV-2 (G strain); [3]): 31.6 µg/mL (≈ 120 µM) | EC50 (HSV-2 (G strain); [4]): 12.6 µg/mL (≈ 47.7 µM) | EC50 (HSV-2 (G strain); [5]): 8.7 ± 1.8 µg/mL (≈ 32.9 µM) | EC90 (HSV-1 (RV-174); 24 h, RV-174, moi = 5x10^-3, 24 hours): < 1 µg/mL | EC90 (HSV-1 (RV-174); 24 h, RV-174, moi = 5x10^-4, 24 hours): 2.27 µg/mL (≈ 8.59 µM) | EC90 (HSV-1 (RV-174); 48 h, RV-174, moi = 5x10^-3, 48 hours): 1 µg/mL (≈ 3.79 µM) | EC90 (HSV-1 (RV-174); 48 h, RV-174, moi = 5x10^-4, 48 hours): < 1 µg/mL | EC90 (HSV-1 (RV-174); 72 h, RV-174, moi = 5x10^-3, 72 hours): 1 µg/mL (≈ 3.79 µM) | EC90 (HSV-1 (RV-174); 72 h, RV-174, moi = 5x10^-4, 72 hours): < 1 µg/mL | EC99 (HSV-1 (RV-174); RV-174, moi = 5x10^-3, 24 hours): 3.81 µg/mL | EC99 (HSV-1 (RV-174); RV-174, moi = 5x10^-3, 48 hours): 4.96 µg/mL | EC99 (HSV-1 (RV-174); RV-174, moi = 5x10^-3, 72 hours): 3.92 µg/mL | EC99 (HSV-1 (RV-174); RV-174, moi = 5x10^-4, 24 hours): 6.26 µg/mL | EC99 (HSV-1 (RV-174); RV-174, moi = 5x10^-4, 48 hours): 2.74 µg/mL | EC99 (HSV-1 (RV-174); RV-174, moi = 5x10^-4, 72 hours): 3.59 µg/mL | effect on cell differentiation (histological examination) [1]: no effect on cell differentiation
